Tests used:
[1] = animal models; cited from earlier work
human PPARγ = biological target: T1, human PPARγ (Homo sapiens, UniProt P37231); test: Gal4-dependent MH100-Luc reporter, human PPARγ; assay type: cell-based; details: compared with mouse PPARγ
T1 construct: The Gal4-hPPAR LBD constructs were obtained from GlaxoSmithKline; host or cells: HEK293
T1 sequence (P37231 238-503 limits assumed): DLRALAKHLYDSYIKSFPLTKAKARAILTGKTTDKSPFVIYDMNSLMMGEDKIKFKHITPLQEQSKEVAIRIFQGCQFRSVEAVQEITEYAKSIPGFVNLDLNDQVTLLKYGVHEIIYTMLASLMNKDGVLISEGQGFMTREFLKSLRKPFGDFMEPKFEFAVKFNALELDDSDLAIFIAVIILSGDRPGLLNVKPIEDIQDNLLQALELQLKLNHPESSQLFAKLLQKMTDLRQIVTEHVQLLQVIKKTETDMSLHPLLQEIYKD
Procedure: The pGEX-DRIP205 (527˜970) was obtained from the Sloan-Kettering Cancer Center. The Gal4-hPPAR LBD constructs were obtained from GlaxoSmithKline, Research Triangle Park, NC. The IL8-Luciferase reporter was obtained from Celgene, San Diego, Calif. The plasmids mPPARα, mPPARγ1, mPPARδ , and hRXRα were in the pCMX vector (Umesono et al., Cell 65:1255-1266, 1991).
For PPARγ activation assay, HEK293 cells were plated in 12-well cell culture plates and maintained in Dulbecco's modified Eagle's medium (DMEM) supplemented with 10% fetal bovine serum (FBS) at 37° C. under 5% CO2. […] The average normalized luciferase activity was determined via triplicate experiments. […]
To further confirm activation of PPARγ by AJA, and also to determine PPARγ species specificity, the ability of AJA to activate the chimeric Gal4-DBD/PPAR fusion proteins on a Gal4-dependent MH100-Luc reporter was assessed (FIG. 4A). The PPARs were expressed as Gal4 DBD fusion proteins, which bind to the UAS promoter containing 4 copies of a synthetic Gal4 binding site upstream of the minimal thymidine kinase (TK) promoter. […] Transfected cells were treated with increasing concentrations of AJA from 10-60 μM and the luciferase activities were determined in triplicate experiments. […]

PPARα = biological target: T2, PPARα (Mus musculus, UniProt P23204); test: PPRE-TK-LUC reporter transient transfection, PPARα; assay type: cell-based; details: 1 to 20 μM AJA
T2 construct: expressed in transfected cells; host or cells: HEK293 / HEK293T
T2 sequence (P23204 1-468): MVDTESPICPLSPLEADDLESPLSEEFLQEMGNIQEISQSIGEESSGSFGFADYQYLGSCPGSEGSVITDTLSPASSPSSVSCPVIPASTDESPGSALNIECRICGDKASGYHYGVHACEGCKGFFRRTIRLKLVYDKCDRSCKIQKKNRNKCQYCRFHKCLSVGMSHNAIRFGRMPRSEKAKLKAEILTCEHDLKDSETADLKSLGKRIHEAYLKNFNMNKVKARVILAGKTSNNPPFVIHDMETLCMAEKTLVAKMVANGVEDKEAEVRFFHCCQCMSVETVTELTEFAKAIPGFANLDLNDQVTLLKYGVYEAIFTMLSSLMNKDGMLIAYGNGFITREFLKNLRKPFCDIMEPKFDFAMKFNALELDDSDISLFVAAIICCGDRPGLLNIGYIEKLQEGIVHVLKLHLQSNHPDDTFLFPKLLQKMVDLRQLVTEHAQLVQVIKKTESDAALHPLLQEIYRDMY
Procedure: (§1) For PPARγ activation assay, HEK293 cells were plated in 12-well cell culture plates and maintained in Dulbecco's modified Eagle's medium (DMEM) supplemented with 10% fetal bovine serum (FBS) at 37° C. under 5% CO2. Cells were changed to phenol red-free DMEM supplemented with 10% charcoal-stripped fetal bovine serum 3 hours before transfection by a standard calcium-phosphate precipitation method. Twelve hours after transfection, the cells were washed with phosphate-buffered saline (PBS) and fed again with fresh medium containing the indicated concentrations of compounds. After 36 hours, cells were harvested for β-galactosidase and luciferase activities as described previously (Li et al., Proc Natl Acad Sci USA 94:8479-84, 1997). The average normalized luciferase activity was determined via triplicate experiments. For IL-8 promoter assay, HeLa cells were maintained and transfected in the same way as described above. After transfection, cells were recovered for 4 hours before treatment with AJA, GW347845, or solvent. After 3-4 hours, cells were treated with or without 25 nM of phorbol myristate acetate (PMA) for 24 hours.
In an effort to confirm that AJA activates PPARγ selectively, the ability of AJA to activate PPARα and PPARδ was analyzed in a similar transient transfection assay.

human IL-8 promoter = test: IL-8 promoter luciferase assay, HeLa cells with PPARγ ΔAF2 mutant; assay type: cell-based; details: cells transfected with PPARγ ΔAF2 mutant
Procedure: as §1, with “After 3-4 hours, cells were treated with or without 25 nM of phorbol myristate acetate (PMA) for 24 hours.” left out
The IL-8 luciferase reporter controlled by the human IL-8 promoter (-97/-69) was cotransfected with mPPARγ or mPPARγ ΔAF2 mutant into HeLa cells. […] The involvement of PPARγ in regulating IL-8 promoter activity was determined by comparing the IL-8 promoter activity in the presence of wild type PPARγ or its ΔAF2 mutant. […]

CCCCCCC(C)(C)c1cc(O)c2c(c1)OC(C)(C)[C@@H]1CC=C(C(=O)O)C[C@@H]21 [AJA, dimethylheptyl-THC-11-oic acid]
psychoactivity [1]: does not show the typical psychoactive effect
activation of human PPARγ (human PPARγ): activates human PPARγ as efficiently as mouse PPARγ
activation of PPARα (PPARα): no further activation was observed
effect on IL-8 promoter activity (human IL-8 promoter): no effect
